Here are results for three compounds from US20100330200A1, “COMBINATION OF A RETINOID AND A PLATINUM ANTICANCER AGENT” (SIGMA-TAU INDUSTRIE FARMACEUTICHE RIUNITE S.P.A., priority 2006, published 2010).

In series [1] the test system is 1A9PTX22. As to conditions: for LCK (gross log10 cell kill) / TVI % Obs.: 1A9PTX22 s.c. The source says: (§1) Drug treatment started at different tumor sizes.
(§2) Cisplatin was delivered intravenously every seventh day for three times (q7d×3).
(§3) For statistical comparison of tumor volumes in treated vs. control mice the Student's t test (two-sided) was used.

For series [2], the system named is A2780 ovarian carcinoma. As to conditions: for LCK (gross log10 cell kill) / TVI % Obs.: A2780 s.c.
Description: as §1, §2, §3

The test system of series [3] is A2780/DDP. As to conditions: for LCK (gross log10 cell kill) / TVI % Obs.: A2780/DDP s.c.
Description: as §1, §2, §3

In series [4] the test system is HOC18 ovarian carcinoma.
Description: as §1, §2, §3

In series [5] the test system is IGROV-1 ovarian carcinoma. In words: i.p. growing IGROV-1 tumor, locoregional treatment, survival. The class given is in vivo. Here is the method: The IGROV-1 ovarian carcinoma line was maintained by serial intraperitoneal passages in healthy mice. Tumor grows as ascites and small solid masses. IGROV-1 ascitic cells were collected and prepared as previously described [Pratesi G., Tortoreto M., Zunino F., Reg. Cancer Treat., 1990; 3:40-43] and 2.5×10^6 cells/mouse (in 0.2 ml of saline) were injected intraperitoneally. Mice developed hemorrhagic and diffuse carcinomatosis and eventually died by 20 to 35 days. Animals were inspected daily and weighed three times a week. The median day of death (median survival time: MST) was considered as the experimental end point.
Experimental groups consisted of seven mice.
The compound was delivered intraperitoneally at a dose of 10 mg/kg, daily for 5 days a week for 4 weeks (qd×5/w×4w), starting the day after cell injection. Drug activity was assessed as increase in life span (ILS) %, i.e. the percentage increase of MST in treated (T) over control (C) mice (T/C×100−100). Mice alive at the end of experiment (day 88) without disease were considered “long term survivors” (LTS).
For statistical comparison, curves reporting the percentage of surviving animals over time were estimated by the Kaplan-Meier product limit method and compared with the log-rank test. The test was two-sided.

Series [6] has as its system FaDu human squamous pharynx carcinoma. In words: FaDu squamous pharynx carcinoma s.c. xenograft. The class given is in vivo, mouse (human xenograft). As to conditions: ST1926 25 mg/kg oral qdx2/wx3w, carboplatin 40 mg/kg ip q7dx3, combination: carboplatin 1 h before ST1926. Here is the method:
The FaDu human squamous pharynx carcinoma cells (3×10^6 tumor cells) were injected sc in the right flank of CD1 nude female mice.
For orientation: Xenograft models place foreign cells or tissue in a host animal.

Series [7] has as its system MDA-MB231 bone metastases. As to conditions: for Incidence of ostelytic lesions (%) / Incidence of ostelytic lesions (mice/total) / Osteolytic area mm^2 ± SD / Osteolytic area square pixel ± SD: 29 days after tumor implantation, cisplatin 3.1 mg/kg iv q7dx3; for Incidence of ostelytic lesions (%) / Incidence of ostelytic lesions (mice/total) / Osteolytic area mm^2 ± SD / Osteolytic area square pixel ± SD / frequency of osteolysis in tibias compared with the control group: ST1926 25 mg/kg po qdx2/wx3w; for frequency of osteolysis in tibias compared with the control group: radiographs 29 days from injection, cisplatin 3.1 iv q7dx3. Here is the method:
A human breast cancer cell line, MDA-MB231 was cultured in DMEM supplemented with 10% FCS and 1% penicillin-streptomycin solution in a humidified atmosphere of 5% CO2 in air. Cultured used for intratibial injection were at subconfluency. Cells (1×10^5) were suspended in 0.1 ml of PBS and injected into the tibia of female BALB/c-nu/nu mice with the use of a 27-gauge needle under the anesthesia ip of ketamine and xylazine chloride.
Animals were housed under a light-dark cycle, keeping temperature and humidity constant. Parameters of the animal rooms were assessed as follows: 22±2° C. temperature, 55±10% relative humidity, about 15-20 filtered air changes/hour and 12 hour circadian cycle of artificial light (7 a.m., 7 p.m.). At request, the environmental conditions were monitored and the data are retained in Animal Housing Archives. Drinking water was supplied ad libitum. Each mouse was offered daily a complete pellet diet (GLP 4RF21, Mucedola) throughout the study. The analytical certificates of animal food and water are retained at Sigma-Tau premises. All animals were weighed before starting the experiment and were subdivided into the different dosage groups. Each cage was identified by a paper tag indicating: cage number, group, date of tumor injection, starting date of treatment, name of the test item, dose and route of administration, date of sacrifice.
Incidence of osteolytic lesions and ostelytic area were evaluated 29 days after tumor implantation.

Series [8] has as its system human ovarian carcinoma xenografts. In words: Panel of human ovarian carcinoma xenografts, statements over several tumors.
Description: as §1, §2

Series [9] has as its system IGROV-1 ovarian carcinoma. As to conditions: in vivo.
Series [10] in a line: in vivo. As to conditions: female, athymic Swiss nude, mouse, po.
Series [11] deals with IGROV-1 ovarian carcinoma. In words: s.c. growing IGROV-1 tumor, ST1926 doses and schedules.
Where [12] appears, read: ST1926 30 mg/kg oral qdx2/wx3w, 1st day 34.
[13] abbreviates: ST1926 30 mg/kg oral qdx2/wx3w, 1st day 2.
Where [14] appears, read: ST1926 45 mg/kg oral qdx2/wx3w, 1st day 2.
Setting [15] is: HOC18 s.c., ST1926 30 mg/kg oral qdx2/wx3w, 1st day 27.
Setting [16] is: i.p. growing tumor, 10 mg/kg i.p. qdx5/wx4w.
[17] abbreviates: cisplatin 3.1 mg/kg iv q7dx3, 1st day 2.
Where [18] appears, read: HOC18 s.c., cisplatin 3.1 mg/kg iv q7dx3.
[19] abbreviates: HOC18 s.c., cisplatin 4.7 mg/kg iv q7dx3.

Where “and” joins values, the source holds several entries; their conditions need not be identical. Equal values may be shown once. Read-outs that look alike come from different tables or passages of the source.

On to `O=C(O)/C=C/c1ccc(-c2ccc(O)c(C34CC5CC(CC(C5)C3)C4)c2)cc1` [ST1926, E-4-(3-(1-adamantyl)-4-hydroxyphenyl)cinnamic acid], for which the “LCK (gross log10 cell kill)” value was 0.3 in [1] (setting [12]), 0.4 in series [2] (setting [13]), 0.8 in series [3] (setting [14]) and 0.4 in [4] (setting [15]). Besides, the “TVI % Obs.” value in series [1] (setting [12]) is recorded as 35%; in series [2] (setting [13]), 40%; in series [3] (setting [14]), 41%; in series [4] (setting [15]), 37%. For the same compound, the “BWL % (highest)” value is reported as 10% in series [1] (in vivo, 30 mg/kg); 5% in series [2] (in vivo, 30 mg/kg); 13% in [3] (in vivo, 45 mg/kg); 3% in [4] (in vivo, 30 mg/kg). For the same compound, the “survival time over control mice” value in [5] (i.p. growing IGROV-1, 10 mg/kg qdx5/wx4 weeks) is recorded as “significantly (P<0.01) increased”. Further, the “ILS (increase in life span % in treated over control mice)” value in series [5] (setting [16]) was found to be 91%. The “Tox (No. of dead mice/total no. of mice)” value in [5] (setting [16]) is recorded as 0/7. In addition, in series [5] (i.p. growing tumor, 10 mg/kg i.p. qdx5/wx4w, 10 mg/kg), the “LTS (long term survivors at the end of experiments, day 88)” value is 2 out of 7 and 2/7. Also, the TVI in [6] came out at 35%. Further, the “Incidence of ostelytic lesions (%)” value in series [7] came to 63%. In addition, the “Incidence of ostelytic lesions (mice/total)” value in [7] is reported as 5/8. Also, the “Osteolytic area mm^2 ± SD” value in series [7] amounted to 3.1 ± 1.0 mm^2. In series [7], the “Osteolytic area square pixel ± SD” value is 310 ± 106 square pixel. Also, the “tolerability in tumor-bearing mice” value in [7] (in vivo, po, 25 mg/kg) was “well-tolerated”. In addition, the “frequency of osteolysis in tibias compared with the control group” value in [7] is listed as “no significant differences”. Moreover, in series [8] (ST1926 30 or 45 mg/kg per os qdx2/w for 2 or 3 weeks), the “TV inhibition, all the tumors investigated” value is reported as at most 50%. The results for the “BWL (body weight loss %, highest)” value in series [9] (2 mg/kg) and in series [9] (20 mg/kg) were 12% and 25%, respectively. Further, the MTD in series [10] worked out at 15 mg/kg. Further, the LCK in series [11] (15 mg/kg oral qdx2/wx2w) stood at 0.1; in series [11] (15 mg/kg oral qdx5/wx3w) it was 0.4; in [11] (5 × 2 mg/kg oral qdx5/wx4w), 0.3. Besides, the TVI % in series [11] (15 mg/kg oral qdx2/wx2w) was 39%; in series [11] (15 mg/kg oral qdx5/wx3w) it was 52%; in series [11] (5 × 2 mg/kg oral qdx5/wx4w), 35%.
Regarding `N.N.[Cl][Pt][Cl]` [Cisplatin, cisplatin], the “LCK (gross log10 cell kill)” value is on record as 0.3 in series [1] (cisplatin 3.1 mg/kg iv q7dx3); 0.6 in series [1] (cisplatin 4.7 mg/kg iv q7dx3); 0.4 in [2] (setting [17]); 1.2 in series [2] (cisplatin 4.7 mg/kg iv q7dx3); 0 in [3] (cisplatin 4.7 mg/kg iv q7dx3); 1.0 in [4] (setting [18]). In [4] (setting [19]), the “LCK (gross log10 cell kill)” value was >>1.7. In addition, the “TVI % Obs.” value turned out to be 38% in series [1] (cisplatin 3.1 mg/kg iv q7dx3); 57% in series [1] (cisplatin 4.7 mg/kg iv q7dx3); 40% in series [2] (setting [17]); 80% in [2] (cisplatin 4.7 mg/kg iv q7dx3); 15% in series [3] (cisplatin 4.7 mg/kg iv q7dx3); 41% in series [4] (setting [18]). Further, the “TVI % Obs.” value in [4] (setting [19]) was 81%. Moreover, in series [4] (HOC18 s.c., cisplatin 4.7 mg/kg iv q7dx3, tumors/total), the “NED (not evidence of disease at the end of the experiment)” value is given as 1/10. The “complete responses (no evidence of disease at the experiment end), tumors” value in [4] (HOC18 tumor, dose groups taken together) is recorded as 1/10. Besides, the “Incidence of ostelytic lesions (%)” value in series [7] is reported as 71%. For the same compound, the “Incidence of ostelytic lesions (mice/total)” value in [7] is reported as 5/7. In [7], the “Osteolytic area mm^2 ± SD” value was 4.6 ± 1.9 mm^2. In addition, the “Osteolytic area square pixel ± SD” value in [7] is reported as 458 ± 190 square pixel. Besides, the “frequency of osteolysis in tibias compared with the control group” value in [7] was “no significant differences”. The body weight loss result in series [8] (optimal doses of cisplatin) is recorded as “around 20%”.
Consider `N.N.O=C([O-])C1(C(=O)[O-])CCC1.[Pt+2]` [carboplatin, reference compound], for which, in series [6], the TVI was 52%.
